Measurements reported in patent US5683713A, “Pharmaceutical compositions for topical application” (priority 1993, dated 1997).
Read-outs that look alike come from different tables or passages of the source.

Tests used:
[1] = prior art; cited from earlier work
[2] = not told; cited from earlier work
[3] = 6-carboxylfluorescein, rats; pretreatment of the skin with 4% calcium thioglycolate; cited from earlier work
[4] = across human skin; cited from earlier work
[5] = Skin irritation / tolerability; settings: thioglycolate esters and amides
[6] = In-vitro demonstration of the reaction: conversion of cystine into cysteine, followed by TLC; settings: after 6 hours; room temperature, water pH 7.2, under nitrogen
Procedure: A test was made to check whether the presence of a thioglycolate ester will cause conversion of Cystine into Cysteine: [drawing 1]
In a three necked flask (100 ml), under nitrogen were added 10 ml of water (pH 7.2), 200 mg cystine and 200 mg, of iso-octyl thioglycolate and stirred at room temperature for 24 hours. The reaction was followed by TLC using Silica-Gel precoated plates. As an eluant a mixture of BuOH:H2 O:AcOH in a 10:1:5 ratio respectively was used. The plates were developed by spraying a solution of 5% Ninhydrine in ethanol and heating. […] A control experiment was made under the same conditions but without the Thioglycolate ester. After 20 hours at room temperature no cysteine could be detected.

## OCCS [2-Mercaptoethanol]
[1]
  irritation: very strong irritants

## C[S+](C)[O-] [Dimethyl sulfoxide]
[2]
  concentration needed for significant permeation enhancement: > 70%

## CC(C)=O [acetone]
[1]
  irritation: cause irritation and edema

## O=C(O)CS [calcium thioglycolate]
[3]
  increase of penetration as compared to the control: 9 times

## CCCCCCCCCC[S+](C)[O-] (stereo not shown) [decyl methyl, sulfoxide]
[4]
  penetration of sodium methotrexate: enhances the penetration of sodium methotrexate across human skin
[1]
  toxicological problems: creates toxicological problems

## CCOC(=O)CS [ethyl thioglycolate]
[5]
  irritation: irritants

## CC(C)CCCCCOC(=O)CS [iso-octyl thioglycolate, Iso-octyl thioglycolate]
[6]
  conversion of cystine to cysteine (TLC spot): a spot corresponding to cysteine was formed and this spot grew as a function of time

## COC(=O)CS [methyl thioglycolate]
[5]
  irritation: irritants

## tetralinhydrofurfuryl alcohol
[1]
  irritation: cause irritation and edema
